In US10508085B2, “Compounds and methods for IDO and TDO modulation, and indications therefor” (Plexxikon Inc., priority 2016, dated 2019):
Where two headings read alike, the source gives them in different places.

How the values were obtained:
[1] = target: T1, Human Tryptophan 2,3-dioxygenase (TDO) (Homo sapiens, UniProt P48775); experiment: Human TDO enzymatic assay (kynurenine level); type: biochemical; conditions: 1 nM TDO, 350 μM L-Trp; geometric mean; read-out: TDO GMean: IC50 (μM) (Biochemical Assay)
T1 construct: His tag (N); made in house; host or cells: E. coli
T1 sequence (P48775 whole entry): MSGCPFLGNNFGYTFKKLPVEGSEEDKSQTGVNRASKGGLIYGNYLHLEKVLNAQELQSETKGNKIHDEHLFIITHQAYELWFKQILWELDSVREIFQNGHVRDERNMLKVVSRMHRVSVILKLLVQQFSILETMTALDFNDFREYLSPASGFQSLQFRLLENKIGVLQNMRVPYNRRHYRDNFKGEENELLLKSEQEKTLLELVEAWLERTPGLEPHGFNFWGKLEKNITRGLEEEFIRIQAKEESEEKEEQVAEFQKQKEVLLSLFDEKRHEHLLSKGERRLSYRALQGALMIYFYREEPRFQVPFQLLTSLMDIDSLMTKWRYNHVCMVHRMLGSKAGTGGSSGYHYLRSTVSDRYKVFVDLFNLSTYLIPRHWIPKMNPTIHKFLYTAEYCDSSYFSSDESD
Method in brief: (§1)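 Compound is mixed with His-tagged enzyme from E. coli in pH 6.5 phosphate buffer containing ascorbate, methylene blue and catalase, at room temperature. IDO uses 6 nM enzyme and 10 μM Trp for 20 min. TDO uses 1 nM enzyme and 350 μM Trp for 70 min. TCA stops the reaction, and IC50 is derived from kynurenine levels.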

[2] = target: T2, Human Indoleamine 2,3-dioxygenase (IDO) (Homo sapiens, UniProt P14902); experiment: Human IDO enzymatic assay (kynurenine level); type: biochemical; conditions: 6 nM IDO, 10 μM L-Trp; geometric mean; read-out: IDO1 GMean: IC50 (μM) (Biochemical Assay)
T2 construct: His tag (N); made in house; host or cells: E. coli
T2 sequence (P14902 whole entry): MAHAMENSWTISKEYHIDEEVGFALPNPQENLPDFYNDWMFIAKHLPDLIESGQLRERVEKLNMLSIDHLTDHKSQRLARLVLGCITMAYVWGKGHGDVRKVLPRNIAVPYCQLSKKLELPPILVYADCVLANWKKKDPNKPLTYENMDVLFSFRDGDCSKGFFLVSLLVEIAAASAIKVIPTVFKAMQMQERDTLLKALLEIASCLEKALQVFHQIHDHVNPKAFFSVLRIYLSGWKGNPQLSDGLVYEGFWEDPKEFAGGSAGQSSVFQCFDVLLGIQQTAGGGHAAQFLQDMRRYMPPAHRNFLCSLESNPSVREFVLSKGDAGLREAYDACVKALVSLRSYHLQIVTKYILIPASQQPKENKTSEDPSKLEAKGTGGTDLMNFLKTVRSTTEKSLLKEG
Method in brief: as §1

[3] = target: T3, human IDO (IDO1-expressing HEK293 cells) (Homo sapiens, UniProt P14902); experiment: Cell based kynurenine assay, IDO1-expressing HEK293 cell clones; conditions: IDO1-expressing HEK293 cells, geometric mean, read-out: HEK293 IDO1 Kynurenine GMean IC50 (μM) (Cellular Assay)
T3 construct: expressed in transfected cells
T3 sequence (P14902 whole entry): as above
Method in brief: (§2)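 Stably transfected HEK293 clones expressing human IDO1 or TDO (CMV promoter) were seeded at 2.5×10^4 cells/well and treated with serially diluted compounds for 24 h. Supernatant kynurenine was then measured, and % inhibition versus DMSO-treated cell and media-only controls was fitted by nonlinear regression to give IC50.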

[4] = target: T4, human TDO (TDO-expressing HEK293 cells) (Homo sapiens, UniProt P48775); experiment: Cell based kynurenine assay, TDO-expressing HEK293 cell clones; conditions: TDO-expressing HEK293 cells, geometric mean, read-out: HEK293 TDO Kynurenine GMean IC50 (μM) (Cellular Assay)
T4 construct: expressed in transfected cells
T4 sequence (P48775 whole entry): as the sequence (P48775 whole entry) above
Method in brief: as §2

Measured: IC50

CCOC(=O)NC(=O)N1CCC(C(C)(C)C(O)c2cc(Cl)cc3cn[nH]c23)CC1 (centres unmarked) [Compound P-0405, ethyl (4-(1-(5-chloro-1H-indazol-7-yl)-1-hydroxy-2-methylpropan-2-yl)piperidine-1-carbonyl)carbamate]
0.0001 to 10 µM: [1] | [2] | [3]; 24 hours incubation | [4]; 24 hours incubation

CC(C)(C1CCCCC1)C(O)c1cc(Cl)cc2cncn12 (centres unmarked) [Compound P-0086, 1-(7-chloroimidazo[1,5-a]pyridin-5-yl)-2-cyclohexyl-2-methylpropan-1-ol]
0.0001 to 10 µM: [1] | [2] | [3]; 24 hours incubation | [4]; 24 hours incubation

O=C(Cc1ccnc(Cl)c1)N1CCC(C(F)(F)C(O)c2cc(Cl)cc3cn[nH]c23)CC1 (centres unmarked) [Compound P-0525, 1-(4-(2-(5-chloro-1H-indazol-7-yl)-1,1-difluoro-2-hydroxyethyl)piperidin-1-yl)-2-(2-chloropyridin-4-yl)ethan-1-one]
0.0001 to 10 µM: [1] | [2] | [3]; 24 hours | [4]; 24 hours

CC(C)(C1CCN(C(=O)Nc2cccc(C#N)c2)CC1)[C@H](O)c1cc(Cl)cc2cn[nH]c12 [Compound P-0569, (S)-4-(1-(5-chloro-1H-indazol-7-yl)-1-hydroxy-2-methylpropan-2-yl)-N-(3-cyanophenyl) piperidine-1-carboxamide]
0.0001 to 10 µM: [1] | [2] | [3]; 24 hours | [4]; 24 hours

O=C(c1c2c(cc3cn[nH]c13)CC2)C(F)(F)C1CCOCC1 [Compound P-0275, 1-(5,6-dihydro-1H-cyclobuta[f]indazol-7-yl)-2,2-difluoro-2-(tetrahydro-2H-pyran-4-yl)ethan-1-one]
0.0001 to 10 µM: [1] | [2] | [3]; 24 hours incubation | [4]; 24 hours incubation

OC(c1cc(Cl)cc2cn[nH]c12)C1CC(F)(F)C1 (centres unmarked) [Compound P-0017, (5-chloro-1H-indazol-7-yl)(3,3-difluorocyclobutyl)methanol]
0.0001 to 10 µM: [1] | [2] | [3]; 24 hours incubation | [4]; 24 hours incubation

CC(C)(C1CCN(C(=O)Nc2ccc(Cl)c(C(F)(F)F)c2)CC1)C(O)c1cc(Cl)cc2cn[nH]c12 (centres unmarked) [Compound P-0393, 4-(1-(5-chloro-1H-indazol-7-yl)-1-hydroxy-2-methylpropan-2-yl)-N-(4-chloro-3-(trifluoromethyl)phenyl)piperidine-1-carboxamide]
0.0001 to 10 µM: [1] | [2] | [3]; 24 hours incubation | [4]; 24 hours incubation

COCCNC(=O)N1CCC(C(C)(C)[C@@H](O)c2cc(Cl)cc3cn[nH]c23)CC1 [Compound P-0425, (R)-4-(1-(5-chloro-1H-indazol-7-yl)-1-hydroxy-2-methylpropan-2-yl)-N-(2-methoxyethyl) piperidine-1-carboxamide]
0.0001 to 10 µM: [1] | [2] | [3]; 24 hours | [4]; 24 hours

CC(C)(C1CCN(C(=O)NC2CC2)CC1)[C@H](O)c1cc(Cl)cc2cn[nH]c12 [Compound P-0551, (S)-4-(1-(5-chloro-1H-indazol-7-yl)-1-hydroxy-2-methylpropan-2-yl)-N-cyclopropylpiperidine-1-carboxamide]
0.0001 to 10 µM: [1] | [2] | [3]; 24 hours | [4]; 24 hours

O=C(NC1COC1)N1CCC(C(F)(F)C(O)c2cc(Cl)cc3cn[nH]c23)CC1 (centres unmarked) [Compound P-0464, 4-(2-(5-chloro-1H-indazol-7-yl)-1,1-difluoro-2-hydroxyethyl)-N-(oxetan-3-yl)piperidine-1-carboxamide]
0.0001 to 10 µM: [1] | [2] | [3]; 24 hours | [4]; 24 hours

COc1cc(C(O)C2(C)CCCCC2)c2[nH]ncc2c1 (centres unmarked) [Compound P-0115, (5-methoxy-1H-indazol-7-yl)(1-methylcyclohexyl)methanol]
0.0001 to 10 µM: [1] | [2] | [3]; 24 hours incubation | [4]; 24 hours incubation

OC(c1c(F)c(Cl)c(F)c2cn[nH]c12)C1CCC1 (centres unmarked) [Compound P-0246, (5-chloro-4,6-difluoro-1H-indazol-7-yl)(cyclobutyl)methanol]
0.0001 to 10 µM: [1] | [2] | [3]; 24 hours incubation | [4]; 24 hours incubation

CC(C)(C1CCN(C(=O)c2cccnc2)CC1)C(O)c1c(F)c(Cl)cc2cn[nH]c12 (centres unmarked) [Compound P-0418, (4-(1-(5-chloro-6-fluoro-1H-indazol-7-yl)-1-hydroxy-2-methylpropan-2-yl)piperidin-1-yl)(pyridin-3-yl)methanone]
0.0001 to 10 µM: [1] | [2] | [3]; 24 hours | [4]; 24 hours

O=C(CC1CCS(=O)(=O)CC1)N1CCC(C(F)(F)C(O)c2cc(Cl)cc3cn[nH]c23)CC1 (centres unmarked) [Compound P-0481, 1-(4-(2-(5-chloro-1H-indazol-7-yl)-1,1-difluoro-2-hydroxyethyl)piperidin-1-yl)-2-(1,1-dioxidotetrahydro-2H-thiopyran-4-yl)ethan-1-one]
> 10 µM: [4]; 24 hours
0.0001 to 10 µM: [1] | [2] | [3]; 24 hours

O=C(Cc1ccc(F)c(Cl)c1)N1CCC(C(F)(F)C(O)c2cc(Cl)cc3cn[nH]c23)CC1 (centres unmarked) [Compound P-0524, 1-(4-(2-(5-chloro-1H-indazol-7-yl)-1,1-difluoro-2-hydroxyethyl)piperidin-1-yl)-2-(3-chloro-4-fluorophenyl) ethan-1-one]
0.0001 to 10 µM: [1] | [2] | [3]; 24 hours | [4]; 24 hours

O=C(NCC1(O)CC1)N1CCC(C(F)(F)C(O)c2cc(Cl)cc3cn[nH]c23)CC1 (centres unmarked) [Compound P-0465, 4-(2-(5-chloro-1H-indazol-7-yl)-1,1-difluoro-2-hydroxyethyl)-N-((1-hydroxycyclopropyl)methyl)piperidine-1-carboxamide]
0.0001 to 10 µM: [1] | [2] | [3]; 24 hours | [4]; 24 hours

CC1(C(O)c2c(F)c(Cl)c(F)c3cn[nH]c23)CCC1 (centres unmarked) [Compound P-0264, (5-chloro-4,6-difluoro-1H-indazol-7-yl)(1-methylcyclobutyl)methanol]
> 10 µM: [4]; 24 hours incubation
0.0001 to 10 µM: [1] | [2] | [3]; 24 hours incubation

CC(C)(C1CCN(C(=O)CC2CCS(=O)(=O)CC2)CC1)C(O)c1cc(Cl)cc2cn[nH]c12 (stereo not drawn) [Compound P-0448, 1-(4-(1-(5-chloro-1H-indazol-7-yl)-1-hydroxy-2-methylpropan-2-yl)piperidin-l-yl)-2-(1,1-dioxidotetrahydro-2H-thiopyran-4-yl)ethan-1-one]
0.0001 to 10 µM: [1] | [2] | [3]; 24 hours | [4]; 24 hours

COCCCNC(=O)N1CCC(C(C)(C)C(O)c2c(F)c(Cl)cc3cn[nH]c23)CC1 (centres unmarked) [Compound P-0420, 4-(1-(5-chloro-6-fluoro-1H-indazol-7-yl)-1-hydroxy-2-methylpropan-2-yl)-N-(3-methoxypropyl) piperidine-1-carboxamide]
0.0001 to 10 µM: [1] | [2] | [3]; 24 hours | [4]; 24 hours

O=C(CN1CCS(=O)(=O)CC1)N1CCC(C(F)(F)C(O)c2cc(Cl)cc3cn[nH]c23)CC1 (centres unmarked) [Compound P-0485, 1-(4-(2-(5-chloro-1H-indazol-7-yl)-1,1-difluoro-2-hydroxyethyl)piperidin-1-yl)-2-(1,1-dioxidothiomorpholino) ethan-1-one]
> 10 µM: [4]; 24 hours
0.0001 to 10 µM: [1] | [2] | [3]; 24 hours
